Data published in patent US20230096028A1, “BICYCLIC HETEROCYCLYL COMPOUNDS AND USES THEREOF” (Revolution Medicines, Inc., priority 2019, published 2023).
Like-named read-outs stand apart in the source and are kept apart here.

Assays:
[1] = test system: PC-9 cells (EGFR Ex19Del); experiment: Potency Assay: pERK (SOS1 pERK IC50 Assay, AlphaLISA SureFire Ultra p-ERK1/2); format: cell-based; conditions: Homo sapiens, read-out: SOS1 pERK IC50
Method in brief: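 PC-9 (EGFR Ex19Del) cells plated overnight, then treated 1 h at 37° C. with 10-point 3-fold dilutions (top 10 μM final) in duplicate. Lysate pERK1/2 measured by AlphaLISA SureFire Ultra; IC50 from 4-parameter sigmoidal fit.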

[2] = biological target: T1, SOS1 catalytic domain (residues 564-1049) (Homo sapiens, UniProt Q07889); experiment: Potency Assay: binding affinity to SOS1 using Surface Plasmon Resonance (SPR); design: SOS1 catalytic domain (residues 564-1049) immobilized on a sensor chip; conditions: immobilized SOS1 catalytic domain (residues 564-1049), read-out: SOS1 SPR Equilibrium Kd
T1 sequence (Q07889 564-1049): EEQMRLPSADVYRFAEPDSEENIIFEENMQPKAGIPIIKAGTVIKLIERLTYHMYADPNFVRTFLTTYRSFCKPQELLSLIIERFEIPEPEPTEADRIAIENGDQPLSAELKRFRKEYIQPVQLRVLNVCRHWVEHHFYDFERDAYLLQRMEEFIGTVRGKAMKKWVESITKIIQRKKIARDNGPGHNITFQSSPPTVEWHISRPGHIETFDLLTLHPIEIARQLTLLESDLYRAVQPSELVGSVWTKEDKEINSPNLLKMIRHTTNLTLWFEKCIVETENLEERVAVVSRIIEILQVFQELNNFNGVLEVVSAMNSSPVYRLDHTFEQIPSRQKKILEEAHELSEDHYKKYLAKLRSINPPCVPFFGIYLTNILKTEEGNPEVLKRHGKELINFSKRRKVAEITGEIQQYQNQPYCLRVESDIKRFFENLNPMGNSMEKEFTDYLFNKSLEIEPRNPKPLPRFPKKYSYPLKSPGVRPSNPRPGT
Method in brief: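 Avi-tagged SOS1 catalytic domain captured on streptavidin chip (~6000 RU) in 0.01 M HEPES, 0.15 M NaCl, 0.05% P20. Compound dilution series flowed at 50 μL/min for association, then buffer for dissociation, with double reference subtraction. Kd derived from end-of-association binding response plotted against concentration.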

[3] = biological target: T1, SOS1 catalytic domain (residues 564-1049); experiment: Mode of Action Assay: inhibition of SOS1 nucleotide exchange activity (SOS1 TR-FRET IC50 Assay)
[4] = PC-9 cells (EGFR Ex19Del), 1 hour incubation, AlphaLISA p-ERK1/2

IC50 [1, 4] | Kd [2] | IC50 [3] | SMILES | IC50 ([1]; PC-9, 1 h)
> 1000 nM | < 400 nM | < 1000 nM | C[C@@H](Nc1nc(Cl)nc2c1CN(C1CCOCC1)C2=O)c1cc(N)cc(C(F)(F)F)c1 [Example 30, 4-[[(1R)-1-[3-amino-5-(trifluoromethyl)phenyl]ethyl]amino]-2-chloro-6-tetrahydropyran-4-yl-5H-pyrrolo[3,4-d]pyrimidin-7-one] | 
< 1000 nM | < 400 nM | < 1000 nM | C[C@@H](Nc1nc(C(F)F)nc2c1CN(C(=O)N1CCOCC1)C2)c1cc(N)cc(C(F)(F)F)c1 [Example 132, N-[(1R)-1-[3-amino-5-(trifluoromethyl)phenyl]ethyl]-2-(difluoromethyl)-6-(morpholine-4-carbonyl)-5H,6H,7H-pyrrolo[3,4-d]pyrimidin-4-amine] | 
< 1000 nM | < 400 nM | < 1000 nM | C[C@@H](Nc1nc(Cl)nc2c1CN(C(=O)N1CCOCC1)C2)c1cccc(C(F)F)c1F [Example 537] | 
> 1000 nM | < 400 nM | < 1000 nM | COC1CN([C@H]2CCc3ncnc(N[C@H](C)c4cccc(C(F)F)c4F)c3C2)C1 [Example 444] | 
< 1000 nM | < 400 nM | < 1000 nM | C[C@@H](Nc1nc(Cl)nc2c1CN(C(=O)C1CCNCC1(F)F)C2)c1cccc(C(F)F)c1F (stereo partly drawn) [Example 311] | 
< 1000 nM | < 400 nM | < 1000 nM | C[C@@H](Nc1nc(Cl)nc2c1CN(C(=O)c1ccncn1)C2)c1cc(N)cc(C(F)(F)F)c1 [Example 73] | 
< 1000 nM | < 400 nM | < 1000 nM | CC(=O)N1CCN(C(=O)N2Cc3nc(Cl)nc(N[C@H](C)c4cccc(C(F)(F)F)c4)c3C2)CC1 [Example 381] | 
> 1000 nM | < 400 nM | < 1000 nM | C[C@@H]1OCC2(CCN(C(=O)N3Cc4nc(Cl)nc(N[C@H](C)c5cccc(C(F)F)c5F)c4C3)CC2)[C@@H]1N [Example 424] | 
< 1000 nM | < 400 nM | < 1000 nM | C[C@@H](Nc1nc(Cl)nc2c1CN(C(=O)C1(C)CN(C3COC3)C1)C2)c1cccc(C(F)F)c1F [Example 335] | 
> 1000 nM | > 400 nM | < 1000 nM | Cc1nc(N[C@H](C)c2cccc(C(F)F)c2F)c2c(n1)N(C)C(=O)N(C1CCN(C)CC1)C2 [Example 445, (R)-5-((1-(3-(difluoromethyl)-2-fluorophenyl)ethyl)amino)-1,7-dimethyl-3-(1-methylpiperidin-4-yl)-3,4-dihydropyrimido[4,5-d]pyrimidin-2(1H)-one] | 
> 1000 nM | < 400 nM | < 1000 nM | C[C@@H](Nc1nc(Cl)nc2c1CN(C(=O)[C@@H]1CNC[C@@H]1C)C2)c1cc(N)cc(C(F)(F)F)c1 [Example 264] | 
> 1000 nM | < 400 nM | < 1000 nM | C[C@@H](Nc1nc(Cl)nc2c1CN(C(=O)C1CN(C)CCO1)C2)c1cccc(C(F)F)c1F (stereo partly drawn) [Example 298] | 
< 1000 nM | < 400 nM | < 1000 nM | COC1(C(=O)N2Cc3nc(Cl)nc(N[C@H](C)c4cccc(C(F)(F)F)c4)c3C2)CCOCC1 [Example 227] | 
> 1000 nM | > 400 nM | < 1000 nM | C[C@@H](Nc1nc(Cl)nc2c1CN(C(=O)c1cccnn1)CC2)c1cc(N)cc(C(F)(F)F)c1 [Example 235] | 
> 1000 nM | > 400 nM | < 1000 nM | C[C@@H](Nc1nc(Cl)nc2c1CN(S(=O)(=O)N1CCOCC1)CC2)c1cccc(C(F)(F)F)c1 [Example 185] | 
> 1000 nM | > 400 nM | > 1000 nM | C[C@@H](Nc1nc(Cl)nc2c1CN(C(=O)c1nccnn1)CC2)c1cc(N)cc(C(F)(F)F)c1 [Example 248] | 

IC50 [1, 4] | Kd [2] | IC50 [3] | SMILES | IC50 ([1]; PC-9, 1 h)
< 1000 nM | < 400 nM | < 1000 nM | C[C@@H](Nc1nc(Cl)nc2c1CN(C(=O)N1CCOCC1)C2)c1cccc(C(C)(F)F)c1F [Example 478, 2-chloro-N-[(1R)-1-[3-(1,1-difluoroethyl)-2-fluorophenyl]ethyl]-6-(morpholine-4-carbonyl)-5H,6H,7H-pyrrolo[3,4-d]pyrimidin-4-amine] | 
> 1000 nM | > 400 nM | > 1000 nM | Cc1nc2c(c(N[C@H](C)c3cc(N)cc(C(F)(F)F)c3)n1)CN(S(C)(=O)=O)C2 [Example 46, (R)—N-(1-(3-amino-5-(trifluoromethyl)phenyl)ethyl)-2-methyl-6-(methylsulfonyl)-6,7-dihydro-5H-pyrrolo[3,4-d]pyrimidin-4-amine] | 
< 1000 nM | < 400 nM | < 1000 nM | CC(=O)N1CCN(C(=O)N2Cc3nc(Cl)nc(N[C@H](C)c4cccc(C(F)F)c4F)c3C2)CC1 [Example 394] | 
> 1000 nM | > 400 nM | > 1000 nM | CC(=O)N1Cc2nc(C)nc(N[C@H](C)c3cc(N)cc(C(F)(F)F)c3)c2C1 [Example 120, 1-(4-{[(1R)-1-[3-amino-5-(trifluoromethyl)phenyl]ethyl]amino}-2-methyl-5H,6H,7H-pyrrolo[3,4-d]pyrimidin-6-yl)ethan-1-one] | 
< 1000 nM | < 400 nM | < 1000 nM | C[C@@H](Nc1nc(Cl)nc2c1CN(S(=O)(=O)CCO)CC2)c1cc(N)cc(C(F)(F)F)c1 [Example 457] | 
< 1000 nM | < 400 nM | < 1000 nM | COc1ccc(S(=O)(=O)N2CCc3nc(Cl)nc(N[C@H](C)c4cc(N)cc(C(F)(F)F)c4)c3C2)cc1 [Example 454] | 
< 1000 nM | > 400 nM | > 1000 nM | C[C@@H](Nc1nc(Cl)nc2c1CN(C(=O)c1cccc(Cl)n1)C2)c1cc(N)cc(C(F)(F)F)c1 [Example 87] | 
< 1000 nM | < 400 nM | < 1000 nM | C[C@@H](Nc1nc(Cl)nc2c1CN(C(=O)N1CCNC3(CC3)C1)C2)c1cccc(C(F)(F)F)c1 [Example 374] | 
< 1000 nM | < 400 nM | < 1000 nM | COC1(C(=O)N2Cc3nc(Cl)nc(N[C@H](C)c4cccc(C(F)F)c4F)c3C2)CCOCC1 [Example 330] | 
< 1000 nM | < 400 nM | < 1000 nM | C[C@@H](Nc1nc(Cl)nc2c1CN(C(=O)N1CCNCC(F)(F)C1)C2)c1cccc(C(F)F)c1F [Example 402] | 
> 1000 nM | < 400 nM | < 1000 nM | C[C@@H](Nc1nc(Cl)nc2c1CN(C(=O)N1CCOCC1)C2)c1cccc(C(F)(F)C2COCCN2)c1 (stereo partly drawn) [Example 538, (2-chloro-4-(((1R)-1-(3-(difluoro(morpholin-3-yl)methyl)phenyl)ethyl)amino)-5,7-dihydro-6H-pyrrolo[3,4-d]pyrimidin-6-yl)(morpholino)methanone] | 
< 1000 nM | < 400 nM | < 1000 nM | COc1cccc(C(=O)N2Cc3nc(Cl)nc(N[C@H](C)c4cc(N)cc(C(F)(F)F)c4)c3C2)c1OC [Example 107] | 
> 1000 nM | > 400 nM | > 1000 nM | COc1cc(C(=O)N2CCc3nc(Cl)nc(N[C@H](C)c4cc(N)cc(C(F)(F)F)c4)c3C2)nc(OC)n1 [Example 229] | 
< 1000 nM | < 400 nM | < 1000 nM | C[C@@H](Nc1nc(Cl)nc2c1CN(C(=O)CN1CCOCC1)C2)c1cccc(C(F)F)c1F [Example 292] | 
< 1000 nM | < 400 nM | < 1000 nM | C[C@@H](Nc1nc(Cl)nc2c1CN(C(=O)N1CCOCC1)C2)c1cccc2c(F)coc12 [Example 468, [2-chloro-4-[[(1R)-1-(3-fluorobenzofuran-7-yl)ethyl]amino]-5,7-dihydropyrrolo[3,4-d]pyrimidin-6-yl]-morpholino-methanone] | 
< 1000 nM | < 400 nM | < 1000 nM | C[C@@H](Nc1nc(Cl)nc2c1CN(C(=O)N1CCN(C)C(c3ccncc3)C1)C2)c1cccc(C(F)F)c1F (stereo partly drawn) [Example 417] | 

SMILES | IC50 [1, 4] | Kd [2] | IC50 [3] | IC50 ([1]; PC-9, 1 h)
C[C@@H](Nc1nc(Cl)nc2c1CN(C(=O)OC1CCOCC1)C2)c1cc(N)cc(C(F)(F)F)c1 [Example 115, oxan-4-yl 4-{[(1R)-1-[3-amino-5-(trifluoromethyl)phenyl]ethyl]amino}-2-chloro-5H,6H,7H-pyrrolo[3,4-d]pyrimidine-6-carboxylate] |  | < 400 nM | > 1000 nM | < 1000 nM
C[C@@H](Nc1nc(Cl)nc2c1CN(C(=O)N1CCOCC1)C2)c1cccc(C(F)(F)COC2CC2)c1F [Example 469, [2-chloro-4-[[(1R)-1-[3-[2-(cyclopropoxy)-1,1-difluoro-ethyl]-2-fluoro-phenyl]ethyl]amino]-5,7-dihydropyrrolo[3,4-d]pyrimidin-6-yl]-morpholino-methanone] |  | < 400 nM | < 1000 nM | < 1000 nM
